Measurements reported in US20150284385A1, “CERTAIN DIPEPTIDYL PEPTIDASE INHIBITORS” (SHANGHAI FOCHON PHARMACEUTICAL CO LTD, priority 2012, published 2015).
Where two headings read alike, the source gives them in different places.

Columns and labels:
Recombinant human DPP-IV = Recombinant human DPP-IV (Homo sapiens, UniProt P27487); experiment: DPP-IV assay in vitro (H-Ala-Pro-AFC fluorescence); assay type: biochemical; settings: 30 min pre-incubation, H-Ala-Pro-AFC 50 μM
Description: DPP-IV Assay Solutions of test compounds in varying concentrations (10^−5 mol/L, 10^−6 mol/L, 10^−7 mol/L, 10^−8 mol/L, 10^−9 mol/L, 10^−10 mol/L, 10^−11 mol/L, and 10^−12 mol/L) were prepared in dimethyl sulfoxide (DMSO) and then diluted into assay buffer comprising: 10 mM Tris-HCl pH 8.0, 0.2 M NaCl, and 0.1% BSA. Recombinant human DPP-IV (7.8 ng/ml final concentration) was added to the dilutions and pre-incubated for 30 mins at room temperature before the reaction was initiated with H-Ala-Pro-AFC (50 μM final concentration). The total volume of the reaction mixture was 100 μl.
Inhibition constants (IC50) were calculated by GraphPad Prism.

DPP-4 = target: T1, DPP-4 (Mus musculus, UniProt P28843); experiment: Plasma DPP-4 activity in mice after oral dosing; assay type: in vivo, ICR mice; settings: oral 1 mg/kg, read-out: DPP-4 Relative activity %
T1 construct: Blood sample was processed to obtain plasma; from tissue; host or cells: plasma of male ICR mice
Description: Some of the exemplary compounds were tested in mice to assess inhibition of DPP-4 activity via plasma DPP-4 activity. Male ICR mice (25-30 g) were used for this study. All the mice were fasted at least 3 hours before study. Mice (n=6/group) received vehicle or at least one of the exemplary compounds by oral gavage. The dosing solutions were 0.15 mg/ml for the 3 mg/kg. Dosing volume was 20 mL/kg of body weight for all doses. The vehicle was distilled water. […] Blood sample was processed to obtain plasma (2000 g, 5 min, 4° C.) within 15 min after sampling.
Plasma was collected and tested by fluoremetry. Before the testing, 80 mM MgCl2 buffer was added into the 5 uL serum samples and pre-incubation for 5 minutes at room temperature, then […] of 0.1 mM substrate Gly-Pro-AMC and 20 μL of buffer were added into them. The fluorescence of the mixture was measured every 3 minutes after mixing (excitation at 380 nm; emission at 460 nm). After 6 times of measurements, a time-fluorescence cure was obtained. The slope of the curve would be the activity of DPP-4 in serum. The DPP-4 activity before administration was 100%. The relative activity of DPP-4 in serum was calculated using the formula below:
Relative DPP-4activity=DPP-4activity after dosing/DPP-4activity before dosing×100%.

[1] = Table 3, mice plasma, 1 h after dosing
[2] = Table 3, mice plasma, 2 h after dosing
[3] = Table 3, mice plasma, 4 h after dosing
[4] = Table 3, mice plasma, 6 h after dosing
[5] = Table 3, mice plasma, 9 h after dosing
[6] = Table 3, mice plasma, 12 h after dosing
[7] = Table 3, mice plasma, 24 h after dosing
[8] = Table 4 Test 3, mice plasma, 1 h after dosing
[9] = Table 4 Test 3, mice plasma, 2 h after dosing
[10] = Table 4 Test 3, mice plasma, 4 h after dosing
[11] = Table 4 Test 3, mice plasma, 6 h after dosing
[12] = Table 4 Test 3, mice plasma, 9 h after dosing
[13] = Table 4 Test 3, mice plasma, 12 h after dosing
[14] = Table 4 Test 3, mice plasma, 24 h after dosing

T1 sequence (P28843 37-760 limits assumed): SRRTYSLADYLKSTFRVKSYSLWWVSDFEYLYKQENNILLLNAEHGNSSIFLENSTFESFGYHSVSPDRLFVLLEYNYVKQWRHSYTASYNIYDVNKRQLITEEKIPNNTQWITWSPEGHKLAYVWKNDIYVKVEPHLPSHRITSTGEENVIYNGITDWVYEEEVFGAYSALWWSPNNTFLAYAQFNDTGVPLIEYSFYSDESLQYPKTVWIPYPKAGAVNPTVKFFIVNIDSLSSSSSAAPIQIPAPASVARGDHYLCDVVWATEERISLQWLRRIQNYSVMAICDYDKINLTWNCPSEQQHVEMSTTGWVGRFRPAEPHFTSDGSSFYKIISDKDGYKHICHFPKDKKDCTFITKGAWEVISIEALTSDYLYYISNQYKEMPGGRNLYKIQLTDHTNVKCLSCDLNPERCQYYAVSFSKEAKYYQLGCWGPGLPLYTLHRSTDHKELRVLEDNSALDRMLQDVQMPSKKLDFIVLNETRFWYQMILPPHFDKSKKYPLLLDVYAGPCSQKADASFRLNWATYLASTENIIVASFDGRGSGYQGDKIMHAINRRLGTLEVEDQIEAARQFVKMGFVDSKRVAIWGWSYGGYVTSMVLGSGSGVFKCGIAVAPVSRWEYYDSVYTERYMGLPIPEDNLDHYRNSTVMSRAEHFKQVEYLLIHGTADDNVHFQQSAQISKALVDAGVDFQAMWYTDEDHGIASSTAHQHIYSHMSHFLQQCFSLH
Recombinant human DPP-IV, sequence (P27487 whole entry): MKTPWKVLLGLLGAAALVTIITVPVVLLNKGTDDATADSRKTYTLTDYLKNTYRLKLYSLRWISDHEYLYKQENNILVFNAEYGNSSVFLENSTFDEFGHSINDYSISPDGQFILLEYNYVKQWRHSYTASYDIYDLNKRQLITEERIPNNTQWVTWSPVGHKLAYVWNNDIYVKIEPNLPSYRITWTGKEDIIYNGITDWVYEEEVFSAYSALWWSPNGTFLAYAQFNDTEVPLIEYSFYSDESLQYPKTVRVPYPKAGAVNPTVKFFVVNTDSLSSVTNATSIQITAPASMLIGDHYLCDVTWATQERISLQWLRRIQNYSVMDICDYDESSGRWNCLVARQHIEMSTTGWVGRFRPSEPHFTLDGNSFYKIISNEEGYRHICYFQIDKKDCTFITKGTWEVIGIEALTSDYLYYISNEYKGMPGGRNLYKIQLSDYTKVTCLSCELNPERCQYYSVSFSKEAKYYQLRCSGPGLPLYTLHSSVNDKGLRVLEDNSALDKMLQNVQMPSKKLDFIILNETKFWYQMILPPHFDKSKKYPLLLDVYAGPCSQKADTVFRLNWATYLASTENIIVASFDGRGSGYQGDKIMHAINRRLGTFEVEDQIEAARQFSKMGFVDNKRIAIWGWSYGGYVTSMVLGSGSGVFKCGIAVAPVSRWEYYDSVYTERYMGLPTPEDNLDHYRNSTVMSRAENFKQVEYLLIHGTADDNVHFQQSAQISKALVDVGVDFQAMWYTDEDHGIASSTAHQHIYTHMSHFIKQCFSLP

SMILES | IC50 (Recombinant human DPP-IV) | activity at 1 mg/kg (DPP-4; [1]) | activity at 1 mg/kg (DPP-4; [2]) | activity at 1 mg/kg (DPP-4; [3]) | activity at 1 mg/kg (DPP-4; [4]) | activity at 1 mg/kg (DPP-4; [5]) | activity at 1 mg/kg (DPP-4; [6]) | activity at 1 mg/kg (DPP-4; [7]) | activity at 1 mg/kg (DPP-4; [8]) | activity at 1 mg/kg (DPP-4; [9]) | activity at 1 mg/kg (DPP-4; [10]) | activity at 1 mg/kg (DPP-4; [11]) | activity at 1 mg/kg (DPP-4; [12]) | activity at 1 mg/kg (DPP-4; [13]) | activity at 1 mg/kg (DPP-4; [14]) | also measured
Cc1n[nH]c(-c2ccn3c4c(nc3c2)C[C@H](c2cc(F)c(F)cc2F)[C@@H](N)C4)n1 [Example 8, (7R,8S)-3-(3-methyl-1H-1,2,4-Triazol-5-yl)-7-(2,4,5-trifluorophenyl)-6,7,8,9-tetrahydrobenzo[4,5]imidazo[1,2-a]pyridine-8-amine] | 1.7 nM |  |  |  |  |  |  |  |  |  |  |  |  |  |  | 
Cn1ncnc1-c1ccn2c3c(nc2c1)C[C@H](c1cc(F)c(F)cc1F)[C@@H](N)C3 [Example 9, (7R,8S)-3-(1-Methyl-1H-1,2,4-triazol-5-yl)-7-(2,4,5-trifluorophenyl)-6,7,8,9-tetrahydrobenzo[4,5]imidazo[1,2-a]pyridine-8-amine] | 2 nM |  |  |  |  |  |  |  |  |  |  |  |  |  |  | 
N[C@H]1Cc2c(nc3cc(-c4nnn[nH]4)ccn23)C[C@@H]1c1cc(F)c(F)cc1F [Example 10, (7R,8S)-3-(1H-Tetrazol-5-yl)-7-(2,4,5-trifluorophenyl)-6,7,8,9-tetrahydrobenzo[4,5]imidazo[1,2-a]pyridin-8-amine] | 0.6 nM |  |  |  |  |  |  |  |  |  |  |  |  |  |  | 
N[C@H]1Cc2c(nc3cc(-c4n[nH]c(=O)o4)ccn23)C[C@@H]1c1cc(F)c(F)cc1F [Example 12, 5-((7R,8S)-8-Amino-7-(2,4,5-trifluorophenyl)-6,7,8,9-tetrahydrobenzo[4,5]imidazo[1,2-a]pyridin-3-yl)-1,3,4-oxadiazol-2(3H)-one] |  | 7.4 ± 1.2% | 7 ± 1.1% | 6.4 ± 1.9% | 10.5 ± 1.7% | 10.1 ± 1.2% | 15 ± 1.6% | 38.3 ± 5.6% | 7.4 ± 1.2% | 7 ± 1.1% | 6.4 ± 1.9% | 10.5 ± 1.7% | 10.1 ± 1.2% | 15 ± 1.6% | 38.3 ± 5.6% | 
Cn1nc(-c2ccn3c4c(nc3c2)C[C@H](c2cc(F)c(F)cc2F)[C@@H](N)C4)oc1=O [Example 13, 5-((7R,8S)-8-Amino-7-(2,4,5-trifluorophenyl)-6,7,8,9-tetrahydrobenzo[4,5]imidazo[1,2-a]pyridin-3-yl)-3-methyl-1,3,4-oxadiazol-2(3H)-one] |  | 8.5 ± 2.2% | 5 ± 1.7% | 7 ± 2.7% | 4.4 ± 2.3% | 6.1 ± 1.7% | 8.5 ± 1.3% | 20.2 ± 0.6% | 8.5 ± 2.2% | 5 ± 1.7% | 7 ± 2.7% | 4.4 ± 2.3% | 6.1 ± 1.7% | 8.5 ± 1.3% | 20.2 ± 0.6% | 
NC(=O)c1ccn2c3c(nc2c1)C[C@H](c1cc(F)c(F)cc1F)[C@@H](N)C3 [Refference 1, (7R,8S)-8-amino-7-(2,4,5-trifluorophenyl)-6,7,8,9-tetrahydrobenzo[4,5]imidazo[1,2-a]pyridine-3-carboxamide, reference compound] |  |  |  |  |  |  |  |  | 17.5 ± 1.4% | 17 ± 1.7% | 22 ± 2.1% | 33.2 ± 2.7% | 42.5 ± 2.2% | 58 ± 2.6% | 81.9 ± 7.4% | activity at 1 mg/kg (DPP-4; Table 4 Test 1, mice plasma, 1 h after dosing): 20.5 ± 3%; activity at 1 mg/kg (DPP-4; Table 4 Test 1, mice plasma, 2 h after dosing): 18.1 ± 2.2%; activity at 1 mg/kg (DPP-4; Table 4 Test 1, mice plasma, 4 h after dosing): 19.9 ± 2%; activity at 1 mg/kg (DPP-4; Table 4 Test 1, mice plasma, 6 h after dosing): 25.3 ± 2%; activity at 1 mg/kg (DPP-4; Table 4 Test 1, mice plasma, 9 h after dosing): 33.3 ± 1.5%; activity at 1 mg/kg (DPP-4; Table 4 Test 1, mice plasma, 12 h after dosing): 49.5 ± 2.8%; activity at 1 mg/kg (DPP-4; Table 4 Test 1, mice plasma, 24 h after dosing): 90.7 ± 3.2%; activity at 1 mg/kg (DPP-4; Table 4 Test 2, mice plasma, 1 h after dosing): 15.5 ± 1.1%; activity at 1 mg/kg (DPP-4; Table 4 Test 2, mice plasma, 2 h after dosing): 16.5 ± 2%; activity at 1 mg/kg (DPP-4; Table 4 Test 2, mice plasma, 4 h after dosing): 14.9 ± 2.9%; activity at 1 mg/kg (DPP-4; Table 4 Test 2, mice plasma, 6 h after dosing): 23.3 ± 3.8%; activity at 1 mg/kg (DPP-4; Table 4 Test 2, mice plasma, 9 h after dosing): 34.5 ± 2.7%; activity at 1 mg/kg (DPP-4; Table 4 Test 2, mice plasma, 24 h after dosing): 91.1 ± 4.3%
